The text below walks through data of article PMC11814485, “Screening of homing and tissue-penetrating peptides by microdialysis and in vivo phage display” (Life Science Alliance, 2025).

The data set has as its system CHO-K cells. In words: Peptide internalization in vitro, confocal imaging, CHO-K cells. In kind it is cell-based, Chinese hamster. The conditions noted are these: FAM-labeled peptide 20 μM, 3 h, 37°C, confocal fluorescence imaging, representative of three experiments. How it is done:
Figure 1. Microdialysis-captured peptides penetrate the cell membrane. […] CHO-K cells were grown on chamber slides. […] The scale bar is 20 μm. Images are representative of three individual experiments.
Plain growth medium was used as a negative control.

Consider “CARSKNKDC [FAM-labeled synthetic CAR peptide (…), known cell- and tissue-penetrating homing peptide, reference compound]”, for which the “cellular uptake in CHO-K cells” value is given as “accumulate in the CHO-K cells”.
